Target: T1, rat B1R (bradykinin receptor 1) (Rattus norvegicus, UniProt P97583)
T1 construct: expressed in transfected cells; host or cells: CHO K1 cells
T1 sequence (P97583 1-337): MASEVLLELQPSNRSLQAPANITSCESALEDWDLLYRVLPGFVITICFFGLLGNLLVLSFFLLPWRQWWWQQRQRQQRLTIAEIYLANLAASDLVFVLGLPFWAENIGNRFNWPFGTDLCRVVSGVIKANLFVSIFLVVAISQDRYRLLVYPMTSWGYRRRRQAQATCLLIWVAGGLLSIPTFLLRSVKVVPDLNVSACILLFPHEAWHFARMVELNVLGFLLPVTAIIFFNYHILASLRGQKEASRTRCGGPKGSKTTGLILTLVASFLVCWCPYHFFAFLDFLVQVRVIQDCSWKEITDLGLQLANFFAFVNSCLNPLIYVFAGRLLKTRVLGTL
Experiment: FLIPR Ca2+ assay (Fluo-4) on CHO K1 cells stably transfected with the B1R gene of the rat (rB1R cells): % inhibition at 10 μM / IC50, agonist Des-Arg9-bradykinin
Type: cell-based
Conditions: CHO-K1, rat B1R
Summary of the method: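 Stable CHO K1 lines, Fluo-4 dye, probenecid-containing buffer. Cpd 10 μM or dose range, 10–20 min, then EC80 agonist (h: Lys-Des-Arg9-BK; r: Des-Arg9-BK). Readout peak FC; % inhibition vs max; IC50 from n=2–3, N≥2.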

SMILES | inhibition at 10 µM [%]
O=C(NC1CCc2ccc(C(=O)N3CCC4(CCN(Cc5ccc6ncccc6c5)CC4)C3)cc21)c1sccc1Cl (centres unmarked) [IND_CC-570, 3-Chloro-N-[6-[8-(quinolin-6-yl-methyl)-2,8-diazaspiro[4.5]decane-2-carbonyl]-2,3-dihydro-1H-inden-1-yl]-thiophene-2-carboxylic acid amide] | 57
O=C(NC1CCc2ccc(C(=O)N3CCC4(CCN(Cc5ccc6nccnc6c5)CC4)C3)cc21)c1sccc1Cl (centres unmarked) [IND_CC-571, 3-Chloro-N-[6-[8-(quinoxalin-6-yl-methyl)-2,8-diazaspiro[4.5]decane-2-carbonyl]-2,3-dihydro-1H-inden-1-yl]-thiophene-2-carboxylic acid amide] | 52
CN(C(=O)c1ccccc1Cl)C1CCc2ccc(C(=O)N3CCC4(CCN(Cc5cccc(C#N)c5)CC4)C3)cc21 (centres unmarked) [IND_CC-572, 2-Chloro-N-[6-[8-[(3-cyano-phenyl)-methyl]-2,8-diazaspiro[4.5]decane-2-carbonyl]-2,3-dihydro-1H-inden-1-yl]-N-methyl-benzamide] | 80
O=C(NC1CCc2ccc(C(=O)N3CCC4(CCN(C(=O)c5ccc(F)cc5Cl)CC4)C3)cc21)c1ccccc1Cl (centres unmarked) [IND_CC-575, 2-Chloro-N-[6-[8-(2-chloro-4-fluoro-benzoyl)-2,8-diazaspiro[4.5]decane-2-carbonyl]-2,3-dihydro-1H-inden-1-yl]-benzamide] | 78
O=C(NC1CCc2ccc(C(=O)N3CCC4(CCN(C(=O)c5ccc(F)cc5F)CC4)C3)cc21)c1ccccc1Cl (centres unmarked) [IND_CC-576, 2-Chloro-N-[6-[8-(2,4-difluoro-benzoyl)-2,8-diazaspiro[4.5]decane-2-carbonyl]-2,3-dihydro-1H-inden-1-yl]-benzamide] | 79
Cn1nc(C(C)(C)C)cc1C(=O)N1CCC2(CCN(C(=O)c3ccc4c(c3)C(NC(=O)c3ccccc3Cl)CC4)C2)CC1 (centres unmarked) [IND_CC-578, N-[6-[8-(5-tert-Butyl-2-methyl-2H-pyrazole-3-carbonyl)-2,8-diazaspiro-[4.5]decane-2-carbonyl]-2,3-dihydro-1H-inden-1-yl]-2-chloro-benzamide] | 79
Cc1cc(C(=O)N2CCC3(CCN(C(=O)c4ccc5c(c4)C(NC(=O)c4ccccc4Cl)CC5)C3)CC2)n(C(C)(C)C)n1 (centres unmarked) [IND_CC-579, N-[6-[8-(2-tert-Butyl-5-methyl-2H-pyrazole-3-carbonyl)-2,8-diazaspiro-[4.5]decane-2-carbonyl]-2,3-dihydro-1H-inden-1-yl]-2-chloro-benzamide] | 57
COc1cc(C)c(C(=O)NC2CCc3ccc(C(=O)N4CCC5(CCN(C(=O)c6cc(C(C)(C)C)nn6C)CC5)C4)cc32)c(C)c1 (centres unmarked) [IND_CC-580, N-[6-[8-(5-tert-Butyl-2-methyl-2H-pyrazole-3-carbonyl)-2,8-diazaspiro[4.5]decane-2-carbonyl]-2,3-dihydro-1H-inden-1-yl]-4-methoxy-2,6-dimethyl-benzamide] | 81
COc1cc(C)c(C(=O)NC2CCc3ccc(C(=O)N4CCC5(CCN(C(=O)c6cc(C)nn6C(C)(C)C)CC5)C4)cc32)c(C)c1 (centres unmarked) [IND_CC-581, N-[6-[8-(2-tert-Butyl-5-methyl-2H-pyrazole-3-carbonyl)-2,8-diazaspiro[4.5]decane-2-carbonyl]-2,3-dihydro-1H-inden-1-yl]-4-methoxy-2,6-dimethyl-benzamide] | 67
O=C(NC1CCc2ccc(C(=O)N3CCC4(CCN(C(=O)C5CC5)CC4)C3)cc21)c1sccc1Cl (centres unmarked) [IND_CC-582, 3-Chloro-N-[6-[8-(cyclopropanecarbonyl)-2,8-diazaspiro[4.5]decane-2-carbonyl]-2,3-dihydro-1H-inden-1-yl]-thiophene-2-carboxylic acid amide] | 58
CC(C)(C)CC(=O)N1CCC2(CC1)CCN(C(=O)c1ccc3c(c1)C(NC(=O)c1sccc1Cl)CC3)C2 (centres unmarked) [IND_CC-583, 3-Chloro-N-[6-[8-(3,3-dimethyl-butanoyl)-2,8-diazaspiro[4.5]decane-2-carbonyl]-2,3-dihydro-1H-inden-1-yl]-thiophene-2-carboxylic acid amide] | 75
O=C(NC1CCc2ccc(C(=O)N3CCC4(CCN(C(=O)c5ccc(F)cc5Cl)CC4)C3)cc21)c1sccc1Cl (centres unmarked) [IND_CC-584, 3-Chloro-N-[6-[8-(2-chloro-4-fluoro-benzoyl)-2,8-diazaspiro[4.5]decane-2-carbonyl]-2,3-dihydro-1H-inden-1-yl]-thiophene-2-carboxylic acid amide] | 63
O=C(NC1CCc2ccc(C(=O)N3CCC4(CCN(C(=O)c5ccc(F)cc5F)CC4)C3)cc21)c1sccc1Cl (centres unmarked) [IND_CC-585, 3-Chloro-N-[6-[8-(2,4-difluoro-benzoyl)-2,8-diazaspiro[4.5]decane-2-carbonyl]-2,3-dihydro-1H-inden-1-yl]-thiophene-2-carboxylic acid amide] | 52
O=C(NC1CCc2ccc(C(=O)N3CCC4(CCN(C(=O)Cc5ccc(Cl)cc5)CC4)C3)cc21)c1sccc1Cl (centres unmarked) [IND_CC-586, 3-Chloro-N-[6-[8-[2-(4-chlorophenyl)-acetyl]-2,8-diazaspiro[4.5]decane-2-carbonyl]-2,3-dihydro-1H-inden-1-yl]-thiophene-2-carboxylic acid amide] | 76
Cn1nc(C(C)(C)C)cc1C(=O)N1CCC2(CCN(C(=O)c3ccc4c(c3)C(NC(=O)c3sccc3Cl)CC4)C2)CC1 (centres unmarked) [IND_CC-587, N-[6-[8-(5-tert-Butyl-2-methyl-2H-pyrazole-3-carbonyl)-2,8-diazaspiro[4.5]-decane-2-carbonyl]-2,3-dihydro-1H-inden-1-yl]-3-chloro-thiophene-2-carboxylic acid amide] | 71
Cc1cc(C(=O)N2CCC3(CCN(C(=O)c4ccc5c(c4)C(NC(=O)c4sccc4Cl)CC5)C3)CC2)n(C(C)(C)C)n1 (centres unmarked) [IND_CC-588, N-[6-[8-(2-tert-Butyl-5-methyl-2H-pyrazole-3-carbonyl)-2,8-diazaspiro[4.5]-decane-2-carbonyl]-2,3-dihydro-1H-inden-1-yl]-3-chloro-thiophene-2-carboxylic acid amide] | 61
CN(C(=O)c1ccccc1Cl)C1CCc2ccc(C(=O)N3CCC4(CCN(C(=O)C5CC5)CC4)C3)cc21 (centres unmarked) [IND_CC-589, 2-Chloro-N-[6-[8-(cyclopropanecarbonyl)-2,8-diazaspiro[4.5]decane-2-carbonyl]-2,3-dihydro-1H-inden-1-yl]-N-methyl-benzamide] | 81
CN(C(=O)c1ccccc1Cl)C1CCc2ccc(C(=O)N3CCC4(CCN(C(=O)CC(C)(C)C)CC4)C3)cc21 (centres unmarked) [IND_CC-590, 2-Chloro-N-[6-[8-(3,3-dimethyl-butanoyl)-2,8-diazaspiro[4.5]decane-2-carbonyl]-2,3-dihydro-1H-inden-1-yl]-N-methyl-benzamide] | 86
CN(C(=O)c1ccccc1Cl)C1CCc2ccc(C(=O)N3CCC4(CCN(C(=O)c5ccc(F)cc5Cl)CC4)C3)cc21 (centres unmarked) [IND_CC-591, 2-Chloro-N-[6-[8-(2-chloro-4-fluoro-benzoyl)-2,8-diazaspiro[4.5]decane-2-carbonyl]-2,3-dihydro-1H-inden-1-yl]-N-methyl-benzamide] | 62
CN(C(=O)c1ccccc1Cl)C1CCc2ccc(C(=O)N3CCC4(CCN(C(=O)Cc5ccc(Cl)cc5)CC4)C3)cc21 (centres unmarked) [IND_CC-592, 2-Chloro-N-[6-[8-[2-(4-chlorophenyl)-acetyl]-2,8-diazaspiro[4.5]decane-2-carbonyl]-2,3-dihydro-1H-inden-1-yl]-N-methyl-benzamide] | 85
